Counter-ions that a name gives are not always drawn.
Columns and labels:
[1] = tested on: ADP-induced human platelet aggregation; test: Mouse ex vivo studies: plasma of orally dosed mice tested on ADP-induced human platelet aggregation; conditions: 1 mg/kg, p.o; for Last time point * (time in hours): time point after which the activity fell below 30%; for Activity (%) at last time point / Activity (%) at peak: ex vivo in mice
Method: Mouse ex vivo Studies: (Weller, T., Alig, L., et al J. Med. Chem., 1996, 39, 3139-3147)
Mice of either sex weighing between 25-35 g were orally fed the test compound. Blood was collected, from the abdominal aorta into ACD solution, at different time-points ranging from 15 min to 6 h. The blood samples were centrifuged at 2000×g for 10 min to get PFP. This plasma was separated and used as test sample to study its effect on ADP-induced human platelet aggregation (Table 3).

[2] = tested on: ADP-induced guinea pig platelet aggregation; test: Guinea pig ex vivo studies: ADP-induced guinea pig platelet aggregation after oral dosing; conditions: ex vivo in Guinea pigs, 3.1 mg/kg, p.o; for Last time point * (time in hours): time point after which the activity fell below 30%
Method: Guinea Pig Ex vivo Studies:
Guinea pigs of either sex weighing between 500-800 g were orally fed the test compound. Blood was collected, from the carotid artery into ACD solution, at different time-points ranging from 1 to 24 h. PRP was separated and the platelet count adjusted to 3×10^8 platelets/ml using PFP. The effect of the test compound on ADP-induced guinea pig platelet aggregation was studied (Table 4).

Row | melting point | SMILES | also measured
1 | 182 to 183 °C | CCOC(=O)COc1ccc(C(=O)CN2Cc3cc(C(=N)NO)ccc3C2=O)c(O)c1SCC [Example 49, (2-Ethylsulfanyl-3-hydroxy-4-{2-[5-(N-hydroxycarbamimidoyl)-1-oxo-1,3-dihydro-isoindol-2-yl]-acetyl}-phenoxy)-acetic acid ethyl ester] | Peak activity (time in hours) [1]: 0.75 h; Last time point * (time in hours) [1]: 3 h; Activity (%) at last time point [1]: 38%; Activity (%) at peak [1]: 65%
2 | 197 to 198 °C | CCOC(=O)COc1ccc(C(=O)CN2Cc3cc(C(=N)NO)ccc3C2=O)c(O)c1 [Example 42, (3-Hydroxy-4-{2-[5-(N-hydroxycarbamimidoyl)-1-oxo-1,3-dihydro-isoindol-2-yl]-acetyl}-phenoxy)-acetic acid ethyl ester] | Peak activity (time in hours) [1]: 0.75 h; Last time point * (time in hours) [1]: 6 h; Activity (%) at last time point [1]: 62%; Activity (%) at peak [1]: 100%; Activity (%) at last time point [2]: 78%; Activity (%) at peak [2]: 100%; Peak activity (time in hours) [2]: 7 h; Last time point * (time in hours) [2]: 15 h
3 | 227 to 228 °C | CCOC(=O)COc1cc(O)c(C(=O)CN2Cc3cc(C(=N)NO)ccc3C2=O)cc1Cl (hydrate or solvate) [Example 53, (2-Chloro-5-hydroxy-4-{2-[5-(N-hydroxycarbamimidoyl)-1-oxo-1,3-dihydro-isoindol-2-yl]-acetyl}-phenoxy)-acetic acid ethyl ester] | –
4 | 174 to 175 °C | CCOC(=O)C(CCNC(=O)OCc1ccccc1)Oc1ccc(C(=O)CN2Cc3cc(C(=N)NO)ccc3C2=O)cc1 (stereo not shown) [Example 28, 4-Benzyloxycarbonylamino-2-(4-{2-[5-(N-hydroxycarbamimidoyl)-1-oxo-1,3-dihydro-isoindol-2-yl]-acetyl}-phenoxy)-butyric acid ethyl ester] | –
5 | 183 to 184 °C | N=C(NO)c1ccc2c(c1)CN(CC(=O)c1ccc(OCC(=O)OCc3ccccc3)cc1O)C2=O [Example 43, (3-Hydroxy-4-{2-[5-(N-hydroxycarbamimidoyl)-1-oxo-1,3-dihydro-isoindol-2-yl]-acetyl}-phenoxy)-acetic acid benzyl ester] | –
6 | > 250 °C (dec.) | N=C(N)c1ccc2c(c1)CN(CC(=O)c1ccc(OCC(=O)O)cc1)C2=O (as salt: hydrochloride) (hydrate or solvate) [Example 17, (4-{2-[5-Carbamimidoyl-1-oxo-1,3-dihydro-isoindol-2-yl]-acetyl}-phenoxy)-acetic acid] | –
7 | 196 to 197 °C | CCOC(=O)COc1ccc(C(=O)CN2Cc3cc(NC(C)=N)ccc3C2=O)c(O)c1 (as salt: iodide) (hydrate or solvate) [Example 74, (4-{2-[5-Acetimidoylamino-1-oxo-1,3-dihydro-isoindol-2-yl]-acetyl}-3-hydroxy-phenoxy)-acetic acid ethyl ester] | –
8 | 175 to 177 °C | CCCOc1cc(OCC(=O)OCC)ccc1C(=O)CN1Cc2cc(C(=N)NO)ccc2C1=O (hydrate or solvate) [Example 46, (4-{2-[5-(N-Hydroxycarbamimidoyl)-1-oxo-1,3-dihydro-isoindol-2-yl]-acetyl}-3-propoxy-phenoxy)-acetic acid ethyl ester] | –
9 | 156 to 158 °C | CC(C)OC(=O)COc1ccc(C(=O)CN2Cc3cc(C(=N)NC(=O)OCc4ccccc4)ccc3C2=O)cc1 (hydrate or solvate) [Example 8, (4-{2-[5-(Benzyloxycarbonylamino-imino-methyl)-1-oxo-1,3-dihydro-isoindol-2-yl]-acetyl}-phenoxy)-acetic acid isopropyl ester] | –
10 | 214 to 215 °C | CCOC(=O)COc1ccc(C(=O)CN2Cc3cc(C(=N)NO)ccc3C2=O)c(O)c1Cl (hydrate or solvate) [Example 54, (2-Chloro-3-hydroxy-4-{2-[5-(N-hydroxycarbamimidoyl)-1-oxo-1,3-dihydro-isoindol-2-yl]-acetyl}-phenoxy)-acetic acid ethyl ester] | –
11 | 192 to 194 °C | CCOC(=O)COc1ccc(C(=O)CN2Cc3cc(C(=N)NO)ccc3C2=O)c(OCC)c1 [Example 75, (3-Ethoxy-4-{2-[5-(N-hydroxycarbamimidoyl)-1-oxo-1,3-dihydro-isoindol-2-yl]-acetyl}-phenoxy)-acetic acid ethyl ester] | –
12 | 139 to 140 °C | CCOC(=O)COc1ccc(C(=O)CN2Cc3cc(C(=N)NO)ccc3C2=O)c(OCC(=O)OCC)c1 [Example 48, (3-Ethoxycarbonylmethoxy-4-{2-[5-(N-hydroxycarbamimidoyl)-1-oxo-1,3-dihydro-isoindol-2-yl]-acetyl}-phenoxy)-acetic acid ethyl ester] | –
13 | 174 to 175 °C | CCOC(=O)COc1ccc(C(=O)CN2Cc3cc(C(=N)N)ccc3C2=O)cc1S(=O)(=O)CC (as salt: salt) (hydrate or solvate) [Example 35, (4-{2-[5-Carbamimidoyl-1-oxo-1,3-dihydro-isoindol-2-yl]-acetyl}-2-ethanesulfonyl-phenoxy)-acetic acid ethyl ester] | –
14 | 183 to 184 °C | COC(=O)NC(=N)c1ccc2c(c1)CN(CC(=O)c1ccc(OCC(=O)OC(C)C)cc1)C2=O [Example 6, (4-{2-[5-(Imino-methoxycarbonylamino-methyl)-1-oxo-1,3-dihydro-isoindol-2-yl]-acetyl}-phenoxy)-acetic acid isopropyl ester] | –
15 | 163 to 164 °C | CCOC(=O)COc1ccc(C(=O)CN2Cc3cc(C(=N)NO)ccc3C2=O)cc1OCC(=O)OCC [Example 21, (2-Ethoxycarbonylmethoxy-4-{2-[5-(N-hydroxycarbamimidoyl)-1-oxo-1,3-dihydro-isoindol-2-yl]-acetyl}-phenoxy)-acetic acid ethyl ester] | –
16 | 202 to 203 °C | CCOC(=O)COc1ccc(C(=O)CN2Cc3cc(C(=N)N)ccc3C2=O)c(OCC)c1 [Example 76, (4-{2-[5-carbamimidoyl-1-oxo-1,3-dihydro-isoindol-2-yl]-acetyl}-3-ethoxy-phenoxy)-acetic acid ethyl ester] | –
17 | 229 to 230 °C | CCOC(=O)COc1cc(O)c(C(=O)CN2Cc3cc(C(=N)NO)ccc3C2=O)c(O)c1 [Example 63, (3,5-Dihydroxy-4-{2-[5-(N-hydroxycarbamimidoyl)-1-oxo-1,3-dihydro-isoindol-2-yl]-acetyl}-phenoxy)-acetic acid ethyl ester] | –
18 | 190 °C (dec.) | N=C(N)c1ccc2c(c1)CN(CC(=O)c1ccc(OCC(=O)OCc3ccccc3)cc1)C2=O (as salt: salt) (hydrate or solvate) [Example 16, (4-{2-[5-Carbamimidoyl-1-oxo-1,3-dihydro-isoindol-2-yl]-acetyl}-phenoxy)-acetic acid benzyl ester] | –
19 | 181 to 182 °C | CCOC(=O)COc1ccc(C(CN2Cc3cc(C(=N)NO)ccc3C2=O)=NO)cc1OCC(=O)OCC [Example 23, (2-Ethoxycarbonylmethoxy-4-{2-[5-(N-hydroxycarbamimidoyl)-1-oxo-1,3-dihydro-isoindol-2-yl]-1-hydroxyimino-ethyl}-phenoxy)-acetic acid ethyl ester] | Peak activity (time in hours) [1]: 1 h; Last time point * (time in hours) [1]: 4 h; Activity (%) at last time point [1]: 35%; Activity (%) at peak [1]: 100%; Activity (%) at last time point [2]: 48%; Activity (%) at peak [2]: 100%; Peak activity (time in hours) [2]: 7 h; Last time point * (time in hours) [2]: 13 h
20 | 196 to 197 °C | CCOC(=O)COc1ccc(C(=O)CN2Cc3cc(C(=N)NO)ccc3C2=O)c(O)c1CC [Example 57, (2-Ethyl-3-hydroxy-4-{2-[5-(N-hydroxycarbamimidoyl)-1-oxo-1,3-dihydro-isoindol-2-yl]-acetyl}-phenoxy)-acetic acid ethyl ester] | –
21 | 211 to 212 °C | CCOC(=O)CN1CCN(C(=O)CN2Cc3cc(C(=N)N)ccc3C2=O)CC1 (as salt: salt) [Example 66, (4-{2-[5-Carbamimidoyl-1-oxo-1,3-dihydro-isoindol-2-yl]-acetyl}-piperazine-1-yl)-acetic acid ethyl ester] | –

Row | SMILES | melting point | also measured
22 | N=C(N)c1ccc2c(c1)CN(CC(=O)c1ccc(OCC(=O)OC3CCN(C(=O)OCc4ccccc4)CC3)cc1)C2=O (hydrate or solvate) [Example 26, 4-(2-{4-[2-(5-Carbamimidoyl-1-oxo-1,3-dihydro-isoindol-2-yl)-acetyl]-phenoxy}-acetoxy)-piperidine-1-carboxylic acid benzyl ester] | 180 to 181 °C | –
23 | CC(C)COC(=O)NC(=N)c1ccc2c(c1)CN(CC(=O)c1ccc(OCC(=O)OC(C)C)cc1)C2=O (hydrate or solvate) [Example 7, (4-{2-[5-(Imino-isobutoxycarbonylamino-methyl)-1-oxo-1,3-dihydro-isoindol-2-yl]-acetyl}-phenoxy)-acetic acid isopropyl ester] | 155 to 157 °C | –
